Experimental data reported in US10865191B2, “Heterocyclic compounds useful as modulators of TNF alpha” (BRISTOL-MYERS SQUIBB COMPANY, priority 2015, dated 2020).
pIC50: −log10 of the molar value.

Each compound was assayed against TNFα (Homo sapiens, UniProt P01375) (assay: TNF induced HEK-Blue assay (NF-kB-driven secreted alkaline phosphatase reporter)). Conditions: TNFα 0.5 ng/mL, HEK-Blue-CD40L cells, 18 h; read-out: TNF induced HEK-Blue assay IC50 value.
Assay type: cell-based
Outline: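 HEK-Blue-CD40L cells (NF-kB-driven SEAP reporter), 20,000/well, added after 30 min pre-incubation of compound (0.004–25 μM final) with TNFα 0.5 ng/mL final at 37 °C; 18 h incubation. SEAP read with QUANTI-Blue at 620 nm; IC50 from 4-parameter logistic fit, normalized to unstimulated and stimulated DMSO controls.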

Sequence of TNFα (P01375 77-233 limits assumed): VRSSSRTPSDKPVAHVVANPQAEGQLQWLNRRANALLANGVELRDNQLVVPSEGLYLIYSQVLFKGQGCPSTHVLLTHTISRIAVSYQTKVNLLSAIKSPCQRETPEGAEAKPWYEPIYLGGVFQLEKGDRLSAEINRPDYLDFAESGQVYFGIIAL

SMILES | pIC50
CC(Nc1c(Cl)cnc2cc(F)c(-c3cnc(C(C)(O)CO)nc3)cc12)c1ccccc1F (stereo not drawn) [Example 259, 2-(5-(3-chloro-7-fluoro-4-((1-(2-fluorophenyl)ethyl)amino)quinolin-6-yl)pyrimidin-2-yl)propane-1,2-diol] | 4.60 to 5.00
Cc1nc2ccc(-c3cnc(C(C)(C)O)nc3)cc2c(N[C@@H](c2cc(C(N)=O)ccc2F)C(F)F)c1Cl [Example 390, (S)-3-(1-((3-chloro-6-(2-(2-hydroxypropan-2-yl)pyrimidin-5-yl)-2-methylquinolin-4-yl)amino)-2,2-difluoroethyl)-4-fluorobenzamide] | > 6.00
C[C@@H](Nc1c(Cl)cnc2ccc(-c3ccc(CC(N)C(=O)O)cc3)cc12)c1ccccc1F (mixture of isomers) [Example 116, 2-amino-3-(4-(3-chloro-4-(((R)-1-(2-fluorophenyl)ethyl)amino)quinolin-6-yl)phenyl)propanoic acid] | 5.00 to 6.00
Cc1nc2ccccc2c(N[C@H](C)c2cc(Br)ccc2F)c1Cl [Example 538, (R)—N-(1-(5-bromo-2-fluorophenyl)ethyl)-3-chloro-2-methylquinolin-4-amine] | 5.00 to 6.00
CC(Nc1c(Cl)cnc2ccc(-c3ccc(C(C)(C)O)cc3)cc12)c1ccoc1 (racemic) [Example 204, 2-(4-(3-chloro-4-((1-(furan-3-yl)ethyl)amino)quinolin-6-yl)phenyl)propan-2-ol] | > 6.00
CC(Nc1c(Cl)cnc2cc(F)c(-c3ccc(C(O)CN4CCOCC4)cc3)cc12)c1ccccc1F (stereo not drawn) [Example 277, 1-(4-(3-chloro-7-fluoro-4-((1-(2-fluorophenyl)ethyl)amino)quinolin-6-yl)phenyl)-2-morpholinoethan-1-ol] | > 6.00
C[C@@H](Nc1c(Cl)cnc2cc(F)c(-c3cnc(C(C)(C)O)nc3)nc12)c1cc(C#N)ccc1F [Example 590, (R)-3-(1-((3-chloro-7-fluoro-6-(2-(2-hydroxypropan-2-yl)pyrimidin-5-yl)-1,5-naphthyridin-4-yl)amino)ethyl)-4-fluorobenzonitrile] | > 6.00
CC(Nc1c(Cl)cnc2ccc(-c3ccc(C(C)(C)O)cc3)cc12)c1cncn1C (racemic) [Example 210, 2-(4-(3-chloro-4-((1-(1-methyl-1H-imidazol-5-yl)ethyl)amino)quinolin-6-yl)phenyl)propan-2-ol] | > 6.00
COc1cncc(-c2ccc(F)c([C@@H](C)Nc3c(Cl)cnc4ccccc34)c2)c1 [Example 522, (R)-3-chloro-N-(1-(2-fluoro-5-(5-methoxypyridin-3-yl)phenyl)ethyl)quinolin-4-amine] | > 6.00
Cc1nc2ccc(-c3ccc(C(C)(C)O)cc3)cc2c(NC(C)c2ccccc2F)c1Cl (racemic) [Example 308, 2-(4-(3-chloro-4-((1-(2-fluorophenyl)ethyl)amino)-2-methylquinolin-6-yl)phenyl) propan-2-ol] | > 6.00
C[C@@H](Nc1c(Cl)cnc2ccccc12)c1cc(-c2ccccc2)ccc1F [Example 459, (R)-3-chloro-N-(1-(4-fluoro-[1,1′-biphenyl]-3-yl)ethyl)quinolin-4-amine] | > 6.00
C[C@@H](Nc1c(Cl)cnc2cc(F)c(-c3cnc(C(C)(C)O)nc3)nc12)c1cccc(C#N)c1 [Example 588, (R)-3-(1-((3-chloro-7-fluoro-6-(2-(2-hydroxypropan-2-yl)pyrimidin-5-yl)-1,5-naphthyridin-4-yl)amino)ethyl)benzonitrile] | > 6.00
Cc1nc2cc(F)c(-c3cnc(C(C)(C)O)nc3)nc2c(N[C@@H](c2cc(C#N)ccc2F)C(F)F)c1Cl [Example 499, (S)-3-(1-((3-chloro-7-fluoro-6-(2-(2-hydroxypropan-2-yl)pyrimidin-5-yl)-2-methyl-1,5-naphthyridin-4-yl)amino)-2,2-difluoroethyl)-4-fluorobenzonitrile] | > 6.00
CC(Nc1c(Cl)cnc2ccc(-c3cnc(C(C)(C)O)nc3)cc12)[C@@H]1CCCN(C(=O)OC(C)(C)C)C1 (mixture of isomers) [Example 61, tert-butyl (R)-3-((R)-1-((3-chloro-6-(2-(2-hydroxypropan-2-yl)pyrimidin-5-yl)quinolin-4-yl)amino)ethyl)piperidine-1-carboxylate] | 5.00 to 6.00
C[C@@H](Nc1ccnc2ccc(Br)cc12)c1cc(-c2cncnc2)ccc1F [Example 546, (R)-6-bromo-N-(1-(2-fluoro-5-(pyrimidin-5-yl)phenyl)ethyl)quinolin-4-amine] | 4.60 to 5.00
CC(Nc1c(Cl)cnc2ccc(-c3cnc(N4CCNC(=O)C4)nc3)cc12)c1nc(C(N)=O)ccc1F (single isomer, unassigned) [Example 25, 6-(1-((3-chloro-6-(2-(3-oxopiperazin-1-yl)pyrimidin-5-yl)quinolin-4-yl)amino)ethyl)-5-fluoropicolinamide] | 5.00 to 6.00
C[C@@H](Nc1c(Cl)cnc2ccc(-c3ccc(C4(NCCO)CCC4)cc3)cc12)c1ccccc1F [Example 568, (R)-2-((1-(4-(3-chloro-4-((1-(2-fluorophenyl)ethyl)amino)quinolin-6-yl)phenyl)cyclobutyl)amino)ethan-1-ol] | > 6.00

SMILES | pIC50
CC(Nc1c(Cl)cnc2cc(F)c(-c3cnc(N4CCN(C(=O)[C@H](N)CO)CC4)nc3)cc12)c1ccccc1F (single isomer, unassigned) [Example 606] | > 6.00
C[C@@H](Nc1c(Cl)cnc2ccc(-c3cnc(C(C)(C)O)nc3)cc12)c1cc(C2NC(=O)NC2=O)ccc1F (single isomer, unassigned) [Example 423] | > 6.00
CC(C)(O)c1ncc(-c2ccc3ncc(Cl)c(NC(CC(F)(F)F)c4ccccc4F)c3c2)cn1 (racemic) [Example 169, 2-(5-(3-chloro-4-((3,3,3-trifluoro-1-(2-fluorophenyl)propyl)amino)quinolin-6-yl)pyrimidin-2-yl)propan-2-ol] | > 6.00
C[C@@H](Nc1c(Cl)cnc2ccc(-c3cnc(C(C)(C)O)nc3)cc12)c1cc(N2CCNC2=O)ccc1F [Example 370, (R)-1-(3-(1-((3-chloro-6-(2-(2-hydroxypropan-2-yl)pyrimidin-5-yl)quinolin-4-yl)amino)ethyl)-4-fluorophenyl)imidazolidin-2-one] | > 6.00
Cc1nc2cc(F)c(-c3ccc(=O)[nH]c3)cc2c(N[C@H](C)c2cc(Br)ccc2F)c1Cl [Example 449, (R)-5-(4-((1-(5-bromo-2-fluorophenyl)ethyl)amino)-3-chloro-7-fluoro-2-methylquinolin-6-yl)pyridin-2(1H)-one] | > 6.00
C[C@@H](Nc1c(Cl)cnc2ccc(-c3cnc(C(C)(C)O)nc3)cc12)c1cc(C(=O)N(C)C)ccc1F [Example 417, (R)-3-(1-((3-chloro-6-(2-(2-hydroxypropan-2-yl)pyrimidin-5-yl)quinolin-4-yl)amino)ethyl)-4-fluoro-N,N-dimethylbenzamide] | > 6.00
CC(CC(O)(c1ccccc1)c1ccccc1)Nc1c(Cl)cnc2ccc(-c3cnc(C(C)(C)O)nc3)cc12 (racemic) [Example 143, 3-((3-chloro-6-(2-(2-hydroxypropan-2-yl)pyrimidin-5-yl)quinolin-4-yl)amino)-1,1-diphenylbutan-1-ol] | 4.60 to 5.00
C[C@@H](Nc1c(Cl)cnc2ccc(-c3ccc(CN4CCC4)cc3)cc12)c1ccccc1F [Example 30, (R)-6-(4-(azetidin-1-ylmethyl)phenyl)-3-chloro-N-(1-(2-fluorophenyl)ethyl)quinolin-4-amine] | 4.60 to 5.00
CCC(Nc1c(Cl)cnc2ccccc12)c1ccccc1F (stereo not drawn) [Example 453, 3-chloro-N-(1-(2-fluorophenyl)propyl)quinolin-4-amine] | 5.00 to 6.00
C[C@@H](Nc1c(Cl)cnc2ccc(-c3ccc(C4(N)CCC4)cc3)cc12)c1ccccc1F [Example 118, (R)-6-(4-(1-aminocyclobutyl)phenyl)-3-chloro-N-(1-(2-fluorophenyl)ethyl)quinolin-4-amine] | > 6.00
CN(Nc1c(Cl)cnc2ccc(-c3cnc(C(C)(C)O)nc3)cc12)c1ccccc1 [Example 54, 2-(5-(3-chloro-4-(2-methyl-2-phenylhydrazinyl)quinolin-6-yl)pyrimidin-2-yl)propan-2-ol] | > 6.00
CC(Nc1c(Cl)cnc2ccc(-c3cnc(C(C)(C)O)nc3)cc12)[C@H]1CCCN(CC(O)CO)C1 (stereo partly drawn) [Example 106, 3-((S)-3-((S)-1-((3-chloro-6-(2-(2-hydroxypropan-2-yl)pyrimidin-5-yl)quinolin-4-yl)amino)ethyl)piperidin-1-yl)propane-1,2-diol] | 5.00 to 6.00
CC(Nc1c(Cl)cnc2cc(F)c(-c3ccc(C(C)(C)O)c(F)c3)cc12)c1ccccc1F (stereo not drawn) [Example 258, 2-(4-(3-chloro-7-fluoro-4-((1-(2-fluorophenyl)ethyl)amino)quinolin-6-yl)-2-fluorophenyl)propan-2-ol] | 5.00 to 6.00
C[C@@H](Nc1c(Cl)cnc2ccc(-c3cnc(C(C)(C)O)nc3)cc12)c1cc(C(C)(C)O)ccc1F [Example 410, (R)-2-(5-(3-chloro-4-((1-(2-fluoro-5-(2-hydroxypropan-2-yl)phenyl)ethyl)amino)quinolin-6-yl)pyrimidin-2-yl)propan-2-ol] | 5.00 to 6.00
CNC(=O)c1ccc(F)c([C@@H](C)Nc2c(Cl)cnc3ccc(-c4cnc(C(C)(C)O)nc4)cc23)c1 [Example 416, (R)-3-(1-((3-chloro-6-(2-(2-hydroxypropan-2-yl)pyrimidin-5-yl)quinolin-4-yl)amino)ethyl)-4-fluoro-N-methylbenzamide] | 5.00 to 6.00
Cc1nc2ccc(-c3cnc(C(C)(C)O)nc3)cc2c(N[C@@H](c2cc(C(O)CO)ccc2F)C(F)F)c1Cl (mixture of isomers) [Example 402, 1-(3-((S)-1-((3-chloro-6-(2-(2-hydroxypropan-2-yl)pyrimidin-5-yl)-2-methylquinolin-4-yl)amino)-2,2-difluoroethyl)-4-fluorophenyl)ethane-1,2-diol] | > 6.00
